# Test results: patent publication US9868763B2, “Modulators of protease activated receptors” (The University of Queensland, priority 2011, dated 2018)
# “Also recorded” adds a separate entry of the source.
# Tests used:
# MIN6 beta cells = test: Glucose-stimulated insulin secretion (GSIS); assay type: cell-based, mouse; conditions: 52 as pre-treatment before 2f-LIGRLO-NH2
# Method: Rat pancreas and mouse MIN6 beta cells were cultured in DMEM (25 mM glucose) supplemented with 15% fetal calf serum, 10 U/mL penicillin, 10 U/mL streptomycin, 2 mM L-glutamine and […] 2-mercaptoethanol. MIN6 beta cells were passaged and harvested using non-enzymatic cell dissociation solution (Sigma-Aldrich). Glucose-stimulated insulin secretion (GSIS) was performed as described next. MIN6 beta cells were seeded at 0.8×106 mL in a 96-well plate and cultured for 48 h. Cells were washed twice with glucose-free Krebs buffer (NaCl 119 mM, KCl 4.74 mM, CaCl2 2.54 mM, MgCl2 1.19 mM, KH2PO4 1.19 mM, NaHCO3 25 mM, HEPES (pH 7.4) 10 mM and 0.05% BSA). Cells were pre-treated with compound 52 for 30 min with Krebs buffer supplemented with 2.5 mM glucose. After incubation, cells were washed twice with glucose-free Krebs buffer. Glucose (2.5 mM and 25 mM) and compounds were added at specified concentration and incubated for 1 h. Supernatants were collected and insulin concentrations were determined by ELISA (Abeam).
# PAR2 = biological target: T1, PAR2 (Homo sapiens, UniProt P55085); test: PAR2-induced intracellular Ca2+ release in human macrophages; assay type: cell-based; set-up: endogenous in cells
# T1 sequence (P55085 26-397): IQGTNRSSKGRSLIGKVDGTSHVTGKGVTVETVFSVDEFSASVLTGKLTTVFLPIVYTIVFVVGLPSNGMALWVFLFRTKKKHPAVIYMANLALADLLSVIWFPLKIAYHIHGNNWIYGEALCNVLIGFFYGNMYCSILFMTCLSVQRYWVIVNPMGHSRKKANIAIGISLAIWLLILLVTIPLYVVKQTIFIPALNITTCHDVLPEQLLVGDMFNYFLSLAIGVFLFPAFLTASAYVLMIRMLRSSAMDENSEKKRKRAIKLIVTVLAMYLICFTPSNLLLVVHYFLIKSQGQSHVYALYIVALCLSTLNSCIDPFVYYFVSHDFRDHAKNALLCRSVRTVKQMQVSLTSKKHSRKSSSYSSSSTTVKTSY
# Source text: Peripheral blood mononuclear cells were isolated from buffy coat (Australian Red Cross, Kelvin Grove, QLD) using Ficoll-paque density centrifugation (GE Healthcare Bio-Science, Uppsala, Sweden). CD14^+ monocytes were positively selected using CD14^+ MACS magnetic beads (Miltenyi Biotech, Auburn, Calif., USA). Monocytes were differentiated to HMDM in complete media using M-CSF (PeptroTech Inc, Rocky Hill, N.J., USA). HMDM were supplemented with 50% fresh complete medium containing CSF-1 on Day 5 after seeding and re-plated for use on Day 7.
# Water solubility = assay type: physicochemical
# [1] = system: collagen-induced arthritis; test: Collagen-induced arthritis; assay type: in vivo, Wistar rat
# Method: Protocols were based on those described (Lin H S et al., Br J Pharmacol 2007, 150(7):862-72; Nishikawa M et al., Arthritis Rheum 2003, 48(9):2670-81). Female Wistar rats (200-250 g, n′ 14) were immunised on Day 0 with Bovine nasal collagen (200 μg, 50:50 0.05 M acetic acid and Freund's incomplete adjuvant, s.c. tail base). Sham animals received vehicle only (no collagen; 50:50 0.05 M acetic acid and Freund's incomplete adjuvant, s.c. tail base). Boosters of the same dose were given on Day 7. Daily oral dosage of PAR-2 antagonist 52 (10 mg/kg in olive oil, 500 μL, p.o. weight adjusted) or olive oil vehicle (arthritic control, and sham) began on Day 7. Paw thickness and width (as above), body weight, disease activity score and mechanical nociceptive thresholds were measured every second day from Day 10-28.
# Disease Activity Index (DAI) and mechanical hyperalgesia were assessed and qualitatively scored 0 to 4+. The DAI is based on multiple characteristic disease pathologies, incorporating changes in mobility, inflammation and discomfort/pain (maximum total score of 18). Plantar mechanical nociceptive thresholds were measured using Semmes Weinstein Von Frey Anaesthesiometers (Touch Test Sensory Evaluators, Stoelting, Ill., USA).
# Day 28 all rats were euthanised and hind paws fixed in 4% paraformaldehyde, decalcified and embedded in paraffin wax and cut at […]. Sections were stained with H&E for general tissue architecture, with Masson's Trichrome for collagen loss or with alcian blue/safranin-O for mast cells (42). Tissue macrophages were labeled using ED1 monoclonal antibody (for immature rat macrophage/monocytes, Serotec) using standard IHC techniques. Microscopic analysis and cell counts were made from multiple (>6) images/paw with aid of ImageJ 1.42q software.
# [2] = Pharmacokinetics, single oral dose; assay type: in vivo, Wistar rat
# Method: Male Wistar rats were surgically implanted with a jugular vein catheter. Blood samples (heparinised) were collected from the catheter of an unanaesthetised, unrestrained rat, 5 min prior to PAR2 antagonist 52 administration (10 mg/kg p.o.) and 30 min, 1-6, 8 and 24 h post-administration. Rats not implanted with a catheter were given PAR2 antagonist 52 (10 mg/kg/day p.o.) four days consecutively (n=6). On the fifth day, plasma, cerebrospinal fluid (CSF), paw tissue and intraperitoneal adipose were collected for LCMS analysis.
# [3] = system: SLIGRL-NH2-induced acute colonic inflammation; test: PAR2-induced acute colonic inflammation; assay type: in vivo, Wistar rat; conditions: 10 mg/kg p.o.
# Method: A polyethylene catheter (1.7-mm outer diameter) was inserted 8 cm into the colon via the anus, through which SLIGRL-NH2 (1 mg/rat) or saline vehicle (500 l) was administered. Rats remained anesthetized for 10 min and maintained at an angle of 40° to prevent leakage from the anus. Rats were allowed to recover with food and water supplied. All rats were terminated at 10 h after induction and scored appropriately for disease activity index (DAI) and macroscopic disease (see Disease Activity Index below). Colon tissue was taken for wet/dry ratio and MPO assay.
# DAI for both acute and chronic models was assessed and scored by an expert blinded to treatments. Scores incorporated mobility, gastrointestinal pathology, discomfort, and generalized sickness behaviour criteria (each scored 0-3). Any animal that reached stage 3 in any criteria was euthanized by CO2 inhalation and recorded as a disease-related mortality. Scores were summed and expressed as total disease score (maximum 12). DAI was measured at endpoint only (10 h) in the acute study and daily in the chronic TNBS study.
# Colons were dissected post-mortem and given a macroscopic disease score based on that described previously (Bobin-Dubigeon et al., 2001) with some minor alterations (maximal score 14). The entire colon length was removed between the ileocolic and colorectal junction. Length and maximal distension width were measured. […]
# [4] = alcian blue/safranin-O staining
# [5] = male, Wistar, rat, 10 mg/kg oral gavage, plasma
structure (smiles),measurement,setting,value
CC[C@H](C)[C@@H](NC(=O)[C@H](CC1CCCCC1)NC(=O)c1ccno1)C(=O)N1CCC2(C=Cc3ccccc32)CC1 [Compound 52],glucose-stimulated insulin secretion,MIN6 beta cells,normalised insulin secretion
same,PAR2 antagonist potency relative to ENMD-1068,PAR2,1000 fold
same,water solubility,Water solubility,not water soluble enough to administer i.v.
same,collagen-induced rat arthritis,[1]; 10 mg/kg/day p.o.,attenuated collagen-induced rat arthritis
same,lowered mechanical nociceptive threshold (mechanical hyperalgesia),"[1]; 10 mg/kg/day p.o., Day 28",prevented the mechanical hyperalgaesia; also recorded: removed
same,maximal hind paw swelling,"[1]; 10 mg/kg/day p.o., Day 28, change from baseline",25±9%
same,maximal DAI (disease activity index),"[1]; 10 mg/kg/day p.o., Day 28, maximum total score 18",1.6±0.9
same,animals affected by arthritic signs,"[1]; 10 mg/kg/day p.o., by Day 28",60%
same,degranulated mast cells of all mast cells,[1]; [4],less than 5%
same,inactive mast cells of all mast cells,[1]; [4],~80%
same,collagen loss (Masson's Trichrome),[1]; compared to CIA-controls,significantly reduced collagen loss
same,"histopathological changes (H&E, tibia-talus joints)",[1]; daily administration,almost completely prevented
same,arthritic-like up regulation of ED1-macrophages,"[1]; rat, in vivo",prevented
same,presence in plasma after 24 h,[2]; 10 mg/kg oral gavage,No PAR2 antagonist 52 was present
same,concentration at 3 h,"[2]; Wistar, rat, paw tissue homogenate, po, 3 h post administration, 10 mg/kg p.o., LCMS/MS, read-out: concentration in paw tissue homogenates",35 nM
same,bioavailability,"[2]; male, Wistar, rat, plasma, po, 10 mg/kg, 10 mg/kg p.o., from AUC 0-6 h, read-out: oral bioavailability F",55%
same,Cmax,[2]; [5],1700 ± 400 nM
same,Tmax,[2]; [5],4 ± 0.6 h
same,half-life,[2]; [5],67.8 ± 7.8 min
same,acute colonic inflammation induced by SLIGRL-NH2,[3],inhibited
same,"edema, mucin depletion, PAR2 receptor internalization and mastocytosis",[3],markedly reduced
